{"source": "patent US9062046B2", "about": "“Substituted imidazoquinoline derivatives as kinase inhibitors” (Piramal Enterprises Limited, priority 2011, dated 2015)", "key": {"PC3 (prostate cell line)": {"system": "PC3 (prostate cell line)", "experiment": "Cytotoxicity assay (propidium iodide assay), PC3", "format": "cell-based", "details": "Homo sapiens, PC-3; PC3 cells, 1 μM, 48 h treatment", "method": "(§1) The assay was designed as in the reference, Anticancer Drugs, 2002, 13, 1-8, the disclosure of which is incorporated by reference for the teaching of the assay.\n(§2) Cells from cell lines A2780 (ovarian cell line) and PC3 (prostate cell line) (both from ATCC) were seeded at a density of 3000 cells/well in a white opaque 96-well plate. Following incubation at 37° C./5% CO2 for a period of 18-24 h, the cells were treated with various concentrations (stock solution was prepared in DMSO and subsequent dilutions were made in media as per ATCC guidelines) of the test compounds for a period of 48 h. At the end of treatment, the culture medium was discarded, the cells were washed with 1×PBS and 200 μl of 7 μg/ml propidium iodide was added to each well. The plates were frozen at −70° C. overnight. For analysis, the plates were warmed to RT, allowed to thaw and were read in PoleStar fluorimeter with the fluorescence setting. The percentage of viable cells in the non-treated set of wells was considered to be 100 and the percentage viability following treatment was calculated accordingly. IC50 values were calculated from graphs plotted using these percentages."}, "[1]": {"system": "A2780 (ovarian cell line)", "experiment": "Cytotoxicity assay (propidium iodide assay), A2780", "format": "cell-based", "details": "Homo sapiens; A2780 cells, 1 μM, 48 h treatment", "method": "as §1, §2"}}}
{"smiles": "COc1ccc(-n2c(=NC#N)n(C)c3cnc4ccc(-c5cccnc5C)cc4c32)cn1", "note": "[Example 45, N-(1-(6-methoxypyridin-3-yl)-3-methyl-8-(2-methylpyridin-3-yl)-1H-imidazo[4,5-c]quinolin-2(3H)-ylidene)cyanamide]", "values": [{"measurement": "inhibition at 1 µM", "setting": "PC3 (prostate cell line)", "value": "< 30", "unit": "%"}, {"measurement": "inhibition at 1 µM", "setting": "[1]", "value": "30 to 70", "unit": "%"}]}
{"smiles": "COc1ccc(-n2c(=NC#N)n(C)c3cnc4ccc(-c5ccc(O)cc5)cc4c32)cn1", "note": "[Example 46, N-(8-(4-hydroxyphenyl)-1-(6-methoxypyridin-3-yl)-3-methyl-1H-imidazo[4,5-c]quinolin-2(3H)-ylidene)cyanamide]", "values": [{"measurement": "inhibition at 1 µM", "setting": "PC3 (prostate cell line)", "value": "30 to 70", "unit": "%"}, {"measurement": "inhibition at 1 µM", "setting": "[1]", "value": "≥ 70", "unit": "%"}]}
{"smiles": "COc1ccc(-n2c(=NC#N)n(C)c3cnc4ccc(-c5cc(F)ccc5OC)cc4c32)cn1", "note": "[Example 47, N-(8-(5-fluoro-2-methoxyphenyl)-1-(6-methoxypyridin-3-yl)-3-methyl-1H-imidazo[4,5-c]quinolin-2(3H)-ylidene)cyanamide]", "values": [{"measurement": "inhibition at 1 µM", "setting": "PC3 (prostate cell line)", "value": "< 30", "unit": "%"}, {"measurement": "inhibition at 1 µM", "setting": "[1]", "value": "< 30", "unit": "%"}]}
{"smiles": "COc1ccc(-c2ccc3ncc4c(c3c2)n(-c2ccc(OC)nc2)c(=NC#N)n4C)cn1", "note": "[Example 48, N-(1,8-bis(6-methoxypyridin-3-yl)-3-methyl-1H-imidazo[4,5-c]quinolin-2(3H)-ylidene)cyanamide]", "values": [{"measurement": "inhibition at 1 µM", "setting": "PC3 (prostate cell line)", "value": "30 to 70", "unit": "%"}, {"measurement": "inhibition at 1 µM", "setting": "[1]", "value": "≥ 70", "unit": "%"}]}
{"smiles": "COc1ccc(-n2c(=NC#N)n(C)c3cnc4ccc(-c5ccccc5OC)cc4c32)cn1", "note": "[Example 49, N-(8-(2-methoxyphenyl)-1-(6-methoxypyridin-3-yl)-3-methyl-1H-imidazo[4,5-c]quinolin-2(3H)-ylidene)cyanamide]", "values": [{"measurement": "inhibition at 1 µM", "setting": "PC3 (prostate cell line)", "value": "< 30", "unit": "%"}, {"measurement": "inhibition at 1 µM", "setting": "[1]", "value": "30 to 70", "unit": "%"}]}
{"smiles": "Cn1c(=NC#N)n(-c2ccc(C(C)(C)C#N)nc2)c2c3cc(-c4ccc(O)cc4)ccc3ncc21", "note": "[Example 50, N-(1-(6-(2-cyanopropan-2-yl)pyridin-3-yl)-8-(4-hydroxyphenyl)-3-methyl-1H-imidazo[4,5-c]quinolin-2(3H)-ylidene)cyanamide]", "values": [{"measurement": "inhibition at 1 µM", "setting": "PC3 (prostate cell line)", "value": "30 to 70", "unit": "%"}, {"measurement": "inhibition at 1 µM", "setting": "[1]", "value": "≥ 70", "unit": "%"}]}
{"smiles": "COc1ccc(-c2ccc3ncc4c(c3c2)n(-c2ccc(C(C)(C)C#N)nc2)c(=NC#N)n4C)cn1", "note": "[Example 51, N-(1-(6-(2-cyanopropan-2-yl)pyridin-3-yl)-8-(6-methoxypyridin-3-yl)-3-methyl-1H-imidazo[4,5-c]quinolin-2(3H)-ylidene)cyanamide]", "values": [{"measurement": "inhibition at 1 µM", "setting": "PC3 (prostate cell line)", "value": "30 to 70", "unit": "%"}, {"measurement": "inhibition at 1 µM", "setting": "[1]", "value": "≥ 70", "unit": "%"}]}
{"smiles": "COc1ccc(F)cc1-c1ccc2ncc3c(c2c1)n(-c1ccc(C(C)(C)C#N)nc1)c(=NC#N)n3C", "note": "[Example 52, N-(1-(6-(2-cyanopropan-2-yl)pyridin-3-yl)-8-(5-fluoro-2-methoxyphenyl)-3-methyl-1H-imidazo[4,5-c]quinolin-2(3H)-ylidene)cyanamide]", "values": [{"measurement": "inhibition at 1 µM", "setting": "PC3 (prostate cell line)", "value": "< 30", "unit": "%"}, {"measurement": "inhibition at 1 µM", "setting": "[1]", "value": "< 30", "unit": "%"}]}
{"smiles": "COc1ccccc1-c1ccc2ncc3c(c2c1)n(-c1ccc(C(C)(C)C#N)nc1)c(=NC#N)n3C", "note": "[Example 53, N-(1-(6-(2-cyanopropan-2-yl)pyridin-3-yl)-8-(2-methoxyphenyl)-3-methyl-1H-imidazo[4,5-c]quinolin-2(3H)-ylidene)cyanamide]", "values": [{"measurement": "inhibition at 1 µM", "setting": "PC3 (prostate cell line)", "value": "< 30", "unit": "%"}, {"measurement": "inhibition at 1 µM", "setting": "[1]", "value": "30 to 70", "unit": "%"}]}
{"smiles": "Cn1c(=NC#N)n(-c2ccc(C(C)(C)C#N)nc2)c2c3cc(-c4ccc5c(c4)OCO5)ccc3ncc21", "note": "[Example 54, N-(8-(benzo[d][1,3]dioxol-5-yl)-1-(6-(2-cyanopropan-2-yl)pyridin-3-yl)-3-methyl-1H-imidazo[4,5-c]quinolin-2(3H)-ylidene)cyanamide]", "values": [{"measurement": "inhibition at 1 µM", "setting": "PC3 (prostate cell line)", "value": "< 30", "unit": "%"}, {"measurement": "inhibition at 1 µM", "setting": "[1]", "value": "30 to 70", "unit": "%"}]}
{"smiles": "COc1ncc(-c2ccc3ncc4c(c3c2)n(-c2ccc(C(C)(C)C#N)nc2)c(=NC#N)n4C)c(OC)n1", "note": "[Example 55, N-(1-(6-(2-cyanopropan-2-yl)pyridin-3-yl)-8-(2,4-dimethoxypyrimidin-5-yl)-3-methyl-1H-imidazo[4,5-c]quinolin-2(3H)-ylidene)cyanamide]", "values": [{"measurement": "inhibition at 1 µM", "setting": "PC3 (prostate cell line)", "value": "30 to 70", "unit": "%"}, {"measurement": "inhibition at 1 µM", "setting": "[1]", "value": "≥ 70", "unit": "%"}]}
